Tests used:
ApoE knockout mice [1] = experiment: Four blood lipids in serum of ApoE knockout mice (Example 1); assay type: in vivo; details: for HDL-C / LDL-C / TC / TG: serum
Excerpt: (§1) Methods: SPF grade C57BL/6 ApoE −/−model mice were provided by Guangdong Medical Experimental Animal Center, laboratory animal production license No. SOCK (Guangdong) 2013-0002. Laboratory animal quality certificate number: 44007200048196). Mice were half male and half female, aged 8 to 12 weeks, and 72 animals in total. After four weeks of housing in a SPF-level animal facility, animals with less body weights were disposed. A total of 64 animals were randomly divided into 8 groups, 8 in each group, fed with 10% high-fat food, and received with different treatments. Animals were observed and administered with the medicines by gavage once daily. The body weights were measured once a week and continued for 58 days. […] The test sample was dissolved in dimethyl sulfoxide solution and prepared with 30% PEG300.
At the end of the experiment, animals were anesthetized with pentobarbital sodium. Blood was collected from the orbital venous plexus, and centrifuged at 3000 r/min at a low temperature for 10 min to separate the serum. The levels of total cholesterol TC, triglyceride TG, high-density lipoprotein HDL-C, and low-density lipoprotein LDL-C were measured, and the remaining serum was stored in a refrigerator at −80° C.
Statistical analysis: Data were expressed as the mean plus or minus the standard deviation (x± s), and analyzed by SPSS21.0 statistical software. […] The level of test is α=0.05.

[2] = system: atherosclerotic lesions in ApoE knockout mice; experiment: Aortic HE and oil red O staining, atherosclerotic lesion scores (Example 1); assay type: in vivo; details: for Mild n (number of animal cases with mild lesions) / Moderate n (number of animal cases with moderate lesions) / No lesion n (number of animal cases) / Severe n (number of animal cases with severe lesions): of 8 animals; for animals that had atherosclerosis (histological observation): of 8 aortas examined
Excerpt: as §1
(§2) After blood collection, the animals were sacrificed, and the aortic arch together with the heart and thoracic aorta were fixed with neutral formaldehyde and subject to pathological examination. The abdominal aorta was collected and quick-frozen in liquid nitrogen, and stored at −80° C.
a) HE staining: aortic arch was sliced and HE stained. The plaques were observed under optical microscope.
b) Oil red O staining: aortic arch was sliced and oil red O stained. The plaques were observed under optical microscope.

VCAM-1 = experiment: Immunohistochemistry of aortic wall, VCAM-1; assay type: in vivo, mice; details: for aorta (VCAM-1) signal expression in blood vessels: IHC-P×400, single animal micrograph; for VCAM-1 average optical density: aortic wall
Excerpt: as §1, §2
(§3) c) Immunohistochemistry: The thoracic aorta was sliced and detected by immunohistochemistry for the expression of CD68, intercellular adhesion molecule-1 (ICAM-1), and vascular cell adhesion Molecule-1 (VCAM-1).

CD68 = experiment: Immunohistochemistry of aortic wall, CD68; assay type: in vivo, mice; details: for aorta (CD68) signal expression in blood vessels: IHC-P×400, single animal micrograph; for CD68 average optical density: aortic wall
Excerpt: as §1, §2, §3

ApoE knockout mice [3] = experiment: Blood lipid metabolism TG, TCHO, HDL-c, LDL-c (Example 2); assay type: in vivo
Excerpt: Methods: A total of 130 SPF grade C57BL/6 ApoE −/− model male mice aged 8 weeks were purchased from Charles River Laboratories (Beijing, China) (animal license number: SCXK (Beijing) 2016-0001, animal qualification certificate No.: 11400700331337). After one week of acclimatization in a SPF-grade animal facility, the animals with less weights were discarded and the rest was randomly divided into 11 groups, with 8 animals in each group. Except for the healthy control group, the rest were fed with 10% high-fat food (the first day of the high-fat diet was recorded as D1). Starting from the 8th week of the high-fat diet, each group of animals was orally given solvents or corresponding drugs, and the volume of administration was 10 ml/kg, once a day for 8 weeks. Animals were observed and administered by gavage once a day and the body weight were measured once a week for 56 days. […] The store solution of the test samples was dissolved in dimethyl sulfoxide solution and prepared with 30% PEG300.
At the end of the experiment, the animals were euthanized by inhalation of carbon dioxide. Blood was taken from the heart, and centrifuged at 3000 r/min at a low temperature centrifuge for 10 min to separate the serum. The levels of total cholesterol TC, triglyceride TG, high-density lipoprotein HDL-C, and low-density lipoprotein LDL-C were measured, and the remaining serum was stored in a refrigerator at −80° C.
Before the start of the experiment, animal blood samples were analyzed for blood lipid metabolism, including conventional triglyceride (TG), total cholesterol (TCHO), high-density lipoprotein (HDL-c) and low-density lipoprotein (LDL-c). After high-fat or ordinary food feeding for 8 weeks, the blood lipid levels were measured again. After the drug treatment was started, blood lipid measurements were performed every four weeks until the end of the experiment.

[4] = half male and female, 2 mg/kg body weight
[5] = half male and female, 5 mg/kg body weight
[6] = half male and female, 10 mg/kg body weight
[7] = ♀, 2 mg/kg gavage QD, 58 days, 2 mg/kg
[8] = ♀, 2 mg/kg gavage QD, 58 days, listed as Nib1, 2 mg/kg
[9] = ♀, 10 mg/kg gavage QD, 58 days, 10 mg/kg
[10] = ♀, 10 mg/kg gavage QD, 58 days, listed as Nib1, 10 mg/kg

Structure (SMILES): O=c1[nH]c2ccccc2n1C1CCN(CCCC(c2ccc(F)cc2)c2ccc(F)cc2)CC1 [Sample A]
- regulation on blood lipid levels (overall) (ApoE knockout mice [1]; Example 1, overall): have the effect of improving blood lipids
- HDL-C (ApoE knockout mice [1]; [4]): 1.80 ± 0.62 mmol/L
- LDL-C (ApoE knockout mice [1]; [4]): 6.23 ± 2.86 mmol/L
- TC (ApoE knockout mice [1]; [4]): 19.86 ± 6.92 mmol/L
- TG (ApoE knockout mice [1]; [4]): 1.18 ± 0.70 mmol/L
- LDL-C (ApoE knockout mice [1]; [5]): 6.09 ± 2.12 mmol/L
- TC (ApoE knockout mice [1]; [5]): 20.87 ± 6.13 mmol/L
- TG (ApoE knockout mice [1]; [5]): 0.82 ± 0.17 mmol/L
- HDL-C (ApoE knockout mice [1]; half male and female, 5 mg/kg body weight, 5 mg/kg): 1.63 ± 0.28 mmol/L
- HDL-C (ApoE knockout mice [1]; half male and female, 5 mg/kg body weight, listed as sample A, 5 mg/kg): lower
- LDL-C (ApoE knockout mice [1]; [6]): 5.82 ± 2.13 mmol/L
- TC (ApoE knockout mice [1]; [6]): 19.85 ± 6.26 mmol/L
- TG (ApoE knockout mice [1]; [6]): 0.89 ± 0.20 mmol/L
- HDL-C (ApoE knockout mice [1]; half male and female, 10 mg/kg body weight, 10 mg/kg): 1.62 ± 0.35 mmol/L
- HDL-C (ApoE knockout mice [1]; half male and female, 10 mg/kg body weight, listed as sample A, 10 mg/kg): lower
- TG (ApoE knockout mice [1]; ♀, 2 mg/kg gavage QD, 58 days): 0.86 ± 0.16 mmol/L
- LDL-C (ApoE knockout mice [1]; [7]): 3.86 ± 0.95 mmol/L
- TC (ApoE knockout mice [1]; [7]): 13.88 ± 1.77 mmol/L
- LDL-C (ApoE knockout mice [1]; [8]): decreased
- TC (ApoE knockout mice [1]; [8]): decreased
- LDL-C (ApoE knockout mice [1]; ♀, 5 mg/kg gavage QD, 58 days): 4.30 ± 0.39 mmol/L
- TC (ApoE knockout mice [1]; ♀, 5 mg/kg gavage QD, 58 days): 15.41 ± 1.32 mmol/L
- TG (ApoE knockout mice [1]; ♀, 5 mg/kg gavage QD, 58 days): 0.70 ± 0.11 mmol/L
- TG (ApoE knockout mice [1]; ♀, 10 mg/kg gavage QD, 58 days): 0.76 ± 0.07 mmol/L
- LDL-C (ApoE knockout mice [1]; [9]): 3.86 ± 0.38 mmol/L
- TC (ApoE knockout mice [1]; [9]): 14.07 ± 0.64 mmol/L
- LDL-C (ApoE knockout mice [1]; [10]): decreased
- TC (ApoE knockout mice [1]; [10]): decreased
- HDL-C (ApoE knockout mice [1]; ♂, 2 mg/kg gavage QD, 58 days): 2.26 ± 0.54 mmol/L
- LDL-C (ApoE knockout mice [1]; ♂, 2 mg/kg gavage QD, 58 days): 8.60 ± 1.79 mmol/L
- TC (ApoE knockout mice [1]; ♂, 2 mg/kg gavage QD, 58 days): 25.84 ± 3.63 mmol/L
- TG (ApoE knockout mice [1]; ♂, 2 mg/kg gavage QD, 58 days): 1.51 ± 0.92 mmol/L
- HDL-C (ApoE knockout mice [1]; ♂, 5 mg/kg gavage QD, 58 days): 1.83 ± 0.24 mmol/L
- LDL-C (ApoE knockout mice [1]; ♂, 5 mg/kg gavage QD, 58 days): 7.87 ± 1.38 mmol/L
- TC (ApoE knockout mice [1]; ♂, 5 mg/kg gavage QD, 58 days): 26.34 ± 2.50 mmol/L
- TG (ApoE knockout mice [1]; ♂, 5 mg/kg gavage QD, 58 days): 0.94 ± 0.15 mmol/L
- HDL-C (ApoE knockout mice [1]; ♂, 10 mg/kg gavage QD, 58 days): 1.92 ± 0.18 mmol/L
- LDL-C (ApoE knockout mice [1]; ♂, 10 mg/kg gavage QD, 58 days): 7.78 ± 0.40 mmol/L
- TC (ApoE knockout mice [1]; ♂, 10 mg/kg gavage QD, 58 days): 25.64 ± 1.32 mmol/L
- TG (ApoE knockout mice [1]; ♂, 10 mg/kg gavage QD, 58 days): 1.02 ± 0.22 mmol/L
- formation of arterial plaque (pathological results) ([2]; medium doses, preventive treatment): could delay the formation of arterial plaque in ApoE knockout mice to a certain extent
- Mild n (number of animal cases with mild lesions) ([2]; 2 mg/kg body weight): 4
- Moderate n (number of animal cases with moderate lesions) ([2]; 2 mg/kg body weight): 0
- No lesion n (number of animal cases) ([2]; 2 mg/kg body weight): 1
- Severe n (number of animal cases with severe lesions) ([2]; 2 mg/kg body weight): 3
- Mild n (number of animal cases with mild lesions) ([2]; 5 mg/kg body weight): 5
- Moderate n (number of animal cases with moderate lesions) ([2]; 5 mg/kg body weight): 0
- No lesion n (number of animal cases) ([2]; 5 mg/kg body weight): 3
- Severe n (number of animal cases with severe lesions) ([2]; 5 mg/kg body weight): 0
- Mild n (number of animal cases with mild lesions) ([2]; 10 mg/kg body weight): 1
- Moderate n (number of animal cases with moderate lesions) ([2]; 10 mg/kg body weight): 2
- No lesion n (number of animal cases) ([2]; 10 mg/kg body weight): 2
- Severe n (number of animal cases with severe lesions) ([2]; 10 mg/kg body weight): 3
- animals that had atherosclerosis (histological observation) ([2]; 2 mg/kg): 7 cases
- animals that had atherosclerosis (histological observation) ([2]; 5 mg/kg): 5 cases
- animals that had atherosclerosis (histological observation) ([2]; 10 mg/kg): 6 cases
- effect on atherosclerotic lesions compared with the statin group ([2]; overall, aortic pathology Example 1): equivalent to or better than that of the statin group
- Scores (atherosclerotic lesion score, average of the group) ([2]; score 0-3 per Table 8, 2 mg/kg body weight): 1.62 ± 1.19
- Scores (atherosclerotic lesion score, average of the group) ([2]; score 0-3 per Table 8, 5 mg/kg body weight): 0.62 ± 0.52
- Scores (atherosclerotic lesion score, average of the group) ([2]; score 0-3 per Table 8, 5 mg/kg body weight, listed as sample A): lower than the model control group
- Scores (atherosclerotic lesion score, average of the group) ([2]; score 0-3 per Table 8, 10 mg/kg body weight): 1.75 ± 1.28
- aorta (VCAM-1) signal expression in blood vessels (VCAM-1; 2 mg/kg): low to medium
- aorta (VCAM-1) signal expression in blood vessels (VCAM-1; 5 mg/kg): low to medium
- aorta (VCAM-1) signal expression in blood vessels (VCAM-1; 10 mg/kg): low to medium
- VCAM-1 average optical density (VCAM-1; 2 mg/kg gavage QD): 1.41 ± 0.34 ×10^−2
- VCAM-1 average optical density (VCAM-1; 5 mg/kg gavage QD, 5 mg/kg): 0.77 ± 0.46 ×10^−2
- VCAM-1 average optical density (VCAM-1; 5 mg/kg gavage QD, listed as Nib1, 5 mg/kg): reduced expression
- VCAM-1 average optical density (VCAM-1; 5 mg/kg gavage QD, listed as sample A, 5 mg/kg): lower than the model control group
- VCAM-1 average optical density (VCAM-1; 10 mg/kg gavage QD, 10 mg/kg): 0.49 ± 0.51 ×10^−2
- VCAM-1 average optical density (VCAM-1; 10 mg/kg gavage QD, listed as sample A, 10 mg/kg): lower than the model control group
- aorta (CD68) signal expression in blood vessels (CD68; 2 mg/kg): low to medium
- aorta (CD68) signal expression in blood vessels (CD68; 5 mg/kg): low to medium
- aorta (CD68) signal expression in blood vessels (CD68; 10 mg/kg): low to medium
- CD68 average optical density (CD68; 2 mg/kg gavage QD): 2.78 ± 2.01 ×10^−2
- CD68 average optical density (CD68; 5 mg/kg gavage QD): 1.39 ± 0.67 ×10^−2
- CD68 average optical density (CD68; 10 mg/kg gavage QD): 1.86 ± 1.60 ×10^−2
- effect on high-density lipoprotein (HDL-c) level compared with the vehicle group (ApoE knockout mice [3]): significantly reduce
- effect on low-density lipoprotein (LDL-c) level compared with the vehicle group (ApoE knockout mice [3]): significantly reduce
- effect on total cholesterol (TCHO) level compared with the vehicle group (ApoE knockout mice [3]): significantly reduce
- effect on triglyceride (TG) level compared with the vehicle group (ApoE knockout mice [3]): significantly reduce

Source: patent publication US20220202801A1, “USE OF COMPOUND IN PREPARATION OF DRUG FOR TREATING ATHEROSCLEROSIS” (GenEros Biopharma Ltd., priority 2019, published 2022)
